Reference: patent publication US12258342B2, “Class of DNA gyrase and/or topoisomerase IV inhibitors with activity against gram-positive and gram-negative bacteria” (Univerza v Ljubljani, priority 2018, dated 2025)
Values after ≈ are worked out from the molar mass of the structure shown.

Key:
[1] = target: E. coli DNA gyrase (Escherichia coli (strain K12), UniProt P0AES6); assay: DNA gyrase inhibition assay (Inspiralis, streptavidin-coated plates); assay type: biochemical
Description: (§1) Inhibitory activities for compounds of the present invention were determined on E. coli and S. aureus DNA gyrase and topoisomerase IV in an assay from Inspiralis on streptavidin-coated 96-well microtiter plates from Thermo scientific Pierce. […] After washing off the unbound oligonucleotide, the enzyme test was performed. […] Reaction solutions were incubated at 37° C. for 30 min. After that, the TF buffer (50 mM NaOAc with pH 5.0, 50 mM NaCl and 50 mM MgCl2) was added to terminate the enzymatic reaction. After additional incubation for 30 min at rt, during which biotin-oligonucleotide-plasmid triplex was formed, the unbound plasmid was washed off using TF buffer and SybrGOLD in T10 buffer (10 mM Tris HCl with pH 8.0 and 1 mM EDTA) was added. […] GraphPad Prism 6.0 software was used to calculate the IC50 values. The result is given as the average value of three independent measurements. […] Chemoth.

[2] = target: S. aureus DNA gyrase (Staphylococcus aureus, UniProt P0A0K8); assay: biochemical; details: read-out: IC50 DNA gyrase from S. aureus
Description: as §1

[3] = target: E. coli topoisomerase IV (Escherichia coli (strain K12), UniProt P20083); assay: Topoisomerase IV inhibition assay (Inspiralis, streptavidin-coated plates); assay type: biochemical
E. coli topoisomerase IV, sequence (P20083 whole entry, looked up): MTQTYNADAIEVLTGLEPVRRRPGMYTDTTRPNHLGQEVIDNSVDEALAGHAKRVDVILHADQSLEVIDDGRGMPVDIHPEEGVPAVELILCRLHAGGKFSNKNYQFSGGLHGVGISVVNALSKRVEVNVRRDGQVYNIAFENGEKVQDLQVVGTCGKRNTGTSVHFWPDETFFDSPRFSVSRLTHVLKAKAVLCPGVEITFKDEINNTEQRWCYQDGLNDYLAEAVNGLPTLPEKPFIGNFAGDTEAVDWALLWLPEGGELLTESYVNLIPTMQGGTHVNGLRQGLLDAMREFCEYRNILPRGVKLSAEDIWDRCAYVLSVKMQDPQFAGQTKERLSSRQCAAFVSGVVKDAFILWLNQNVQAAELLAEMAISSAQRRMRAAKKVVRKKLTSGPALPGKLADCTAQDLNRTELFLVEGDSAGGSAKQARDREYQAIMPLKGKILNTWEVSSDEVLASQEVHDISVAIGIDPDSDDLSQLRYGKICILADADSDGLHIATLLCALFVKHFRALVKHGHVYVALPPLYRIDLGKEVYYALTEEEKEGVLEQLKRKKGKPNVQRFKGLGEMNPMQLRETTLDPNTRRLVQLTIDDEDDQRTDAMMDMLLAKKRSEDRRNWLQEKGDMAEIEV
E. coli topoisomerase IV, sequence (P0AFI2 whole entry partner, looked up): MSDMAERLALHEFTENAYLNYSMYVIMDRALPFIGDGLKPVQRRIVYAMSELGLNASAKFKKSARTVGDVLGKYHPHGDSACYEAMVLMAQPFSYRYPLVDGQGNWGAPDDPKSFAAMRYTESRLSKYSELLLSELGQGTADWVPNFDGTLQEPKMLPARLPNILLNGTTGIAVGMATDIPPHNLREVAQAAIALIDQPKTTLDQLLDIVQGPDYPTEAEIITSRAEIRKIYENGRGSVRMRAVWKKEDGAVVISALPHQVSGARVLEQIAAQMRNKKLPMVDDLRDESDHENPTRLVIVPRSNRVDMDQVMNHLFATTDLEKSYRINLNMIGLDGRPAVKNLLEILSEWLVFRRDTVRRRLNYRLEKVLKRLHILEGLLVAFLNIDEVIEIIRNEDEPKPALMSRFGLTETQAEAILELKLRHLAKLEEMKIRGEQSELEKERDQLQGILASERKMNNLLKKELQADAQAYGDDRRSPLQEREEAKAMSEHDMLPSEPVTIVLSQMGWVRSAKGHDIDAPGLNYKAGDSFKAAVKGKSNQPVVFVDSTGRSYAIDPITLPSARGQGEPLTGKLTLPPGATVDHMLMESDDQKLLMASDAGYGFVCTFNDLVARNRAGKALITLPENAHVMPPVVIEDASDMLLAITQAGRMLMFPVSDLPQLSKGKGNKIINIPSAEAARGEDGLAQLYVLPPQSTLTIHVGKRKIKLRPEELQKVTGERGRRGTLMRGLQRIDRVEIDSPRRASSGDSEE
Description: Inhibitory activities for compounds of the present invention were determined on E. coli and S. aureus DNA gyrase and topoisomerase IV in an assay from Inspiralis on streptavidin-coated 96-well microtiter plates from Thermo scientific Pierce. […] After washing off the unbound oligonucleotide, the enzyme test was performed. […] Reaction solutions were incubated at 37° C. for 30 min. After that, the TF buffer (50 mM NaOAc with pH 5.0, 50 mM NaCl and 50 mM MgCl2) was added to terminate the enzymatic reaction. After additional incubation for 30 min at rt, during which biotin-oligonucleotide-plasmid triplex was formed, the unbound plasmid was washed off using TF buffer and SybrGOLD in T10 buffer (10 mM Tris HCl with pH 8.0 and 1 mM EDTA) was added. […] Initial screening was done at 100 or 10 nM concentration of inhibitors against E. coli DNA gyrase or 1 μM or 100 nM concentration against S. aureus DNA gyrase and E. coli and S. aureus topo IV. […] GraphPad Prism 6.0 software was used to calculate the IC50 values. The result is given as the average value of three independent measurements. […] Chemoth.

[4] = target: S. aureus topoisomerase IV (Staphylococcus aureus, UniProt P0C1S7); assay: as above; assay type: biochemical; details: read-out: IC50 DNA topoisomerase IV from S. aureus
Description: Inhibitory activities for compounds of the present invention were determined on E. coli and S. aureus DNA gyrase and topoisomerase IV in an assay from Inspiralis on streptavidin-coated 96-well microtiter plates from Thermo scientific Pierce. First, the plates were rehydrated with buffer (20 mM Tris-HCl with pH 7.6, 0.01% w/v BSA, 0.05% v/v Tween 20, 137 mM NaCl) and the biotinylated oligonucleotide was then immobilized. After washing off the unbound oligonucleotide, the enzyme test was performed. […] Reaction solutions were incubated at 37° C. for 30 min. After that, the TF buffer (50 mM NaOAc with pH 5.0, 50 mM NaCl and 50 mM MgCl2) was added to terminate the enzymatic reaction. After additional incubation for 30 min at rt, during which biotin-oligonucleotide-plasmid triplex was formed, the unbound plasmid was washed off using TF buffer and SybrGOLD in T10 buffer (10 mM Tris HCl with pH 8.0 and 1 mM EDTA) was added. The fluorescence was measured with a microplate reader (BioTek Synergy H4, excitation: 485 nm, emission: 535 nm). […]. GraphPad Prism 6.0 software was used to calculate the IC50 values. The result is given as the average value of three independent measurements. […]. Chemoth. 66, 2061-2096 (2011))) for E. coli and S. aureus topoisomerase IV) was used.

[5] = test system: S. aureus ATCC 29213; assay: Microbroth dilution MIC (CLSI); details: Staphylococcus aureus, ATCC29213, read-out: MIC (μg/mL) S. aureus ATCC 29213
[6] = test system: E. faecalis ATCC 29212; assay: Microbroth dilution MIC (CLSI); details: Enterococcus faecalis, ATCC29212, read-out: MIC (μg/mL) E. faecalis ATCC 29212
[7] = test system: E. coli ATCC 25922; assay: Microbroth dilution MIC (CLSI); details: Escherichia coli, ATCC25922, read-out: MIC (μg/mL) E. coli ATCC 25922
[8] = test system: E. faecium ATCC 35667; assay: Microbroth dilution MIC (CLSI); details: Enterococcus faecium, ATCC35667, read-out: MIC (μg/mL) E. faecium ATCC 35667

SMILES | IC50 [1] | IC50 [2] | IC50 [3] | IC50 [4] | MIC [5] | MIC [6] | MIC [7] | MIC [8]
Cc1[nH]c(C(=O)Nc2nc3c(N4CCCC4)cc(C(=O)O)cc3s2)c(Cl)c1Cl [Example 37, 2-(3,4-dichloro-5-methyl-1H-pyrrole-2-carboxamido)-4-(pyrrolidin-1-yl)benzo[d]thiazole-6-carboxylic acid] | < 5 nM | < 20 nM | < 400 nM | < 400 nM | 0.25 µg/mL (≈ 0.569 µM) | 0.125 µg/mL (≈ 0.285 µM) | 16 µg/mL (≈ 36.4 µM) | 
Cc1[nH]c(C(=O)Nc2nc3c(OCc4ccc(C(=O)O)cc4)cc(C(=O)O)cc3s2)c(Cl)c1Cl [Example 12, 4-((4-carboxybenzyl)oxy)-2-(3,4-dichloro-5-methyl-1H-pyrrole-2-carboxamido)benzo[d]thiazole-6-carboxylic acid] | < 5 nM | < 20 nM | < 400 nM | < 400 nM | > 64 µg/mL | > 64 µg/mL | > 64 µg/mL | > 64 µg/mL
Cc1[nH]c(C(=O)Nc2nc3c(OCc4cccc(C(=O)O)c4)cc(C(=O)O)cc3s2)c(Cl)c1Cl [Example 24, 4-((3-carboxybenzyl)oxy)-2-(3,4-dichloro-5-methyl-1H-pyrrole-2-carboxamido)benzo[d]thiazole-6-carboxylic acid] | < 5 nM | < 20 nM | < 400 nM | < 400 nM | > 64 µg/mL | 1.5 µg/mL (≈ 2.88 µM) | > 64 µg/mL | 
O=C(O)c1ccc2nc(N(Cc3ccccc3)C(=O)c3cc(Br)c(Br)[nH]3)sc2c1 [Example 15, 2-(N-benzyl-4,5-dibromo-1H-pyrrole-2-carboxamido)benzo[d]thiazole-6-carboxylic acid] | 5.1 ± 1.3 nM |  |  |  | 0.42 µg/mL (≈ 0.785 µM) | 0.21 µg/mL (≈ 0.392 µM) | > 64 µg/mL | 0.83 µg/mL (≈ 1.55 µM)
Cc1[nH]c(C(=O)Nc2nc3c(OCc4cccs4)cc(C(=O)O)cc3s2)c(Cl)c1Cl [Example 32, 2-(3,4-dichloro-5-methyl-1H-pyrrole-2-carboxamido)-4-(thiophen-2-ylmethoxy)benzo[d]thiazole-6-carboxylic acid] | < 5 nM | < 20 nM | < 400 nM | < 400 nM | 0.065 µg/mL (≈ 0.135 µM) | 0.0163 µg/mL (≈ 0.0337 µM) | 8 µg/mL (≈ 16.6 µM) | 
Cc1[nH]c(C(=O)Nc2nc3cc(O)c(C(=O)O)cc3s2)c(Cl)c1Cl [Example 13, 2-(3,4-dichloro-5-methyl-1H-pyrrole-2-carboxamido)-5-hydroxybenzo[d]thiazole-6-carboxylic acid] | < 5 nM |  |  |  | 16 µg/mL (≈ 41.4 µM) | 1 µg/mL (≈ 2.59 µM) | > 64 µg/mL | 1.21 µg/mL (≈ 3.13 µM)
O=C(O)c1cc(O)c2nc(NC(=O)c3cc(Br)c(Br)[nH]3)sc2c1 [Example 6, 2-(4,5-dibromo-1H-pyrrole-2-carboxamido)-4-hydroxybenzo[d]thiazole-6-carboxylic acid] | 46 ± 33 nM |  |  |  | > 64 µg/mL | 32 µg/mL (≈ 69.4 µM) | > 64 µg/mL | > 64 µg/mL
COc1cc(C(=O)O)cc2sc(NC(=O)c3[nH]c(C)c(Cl)c3Cl)nc12 [Example 8, 2-(3,4-dichloro-5-methyl-1H-pyrrole-2-carboxamido)-4-methoxybenzo[d]thiazole-6-carboxylic acid] | 7.6 ± 3.4 nM |  |  |  | 2 µg/mL (≈ 5 µM) | 0.25 µg/mL (≈ 0.625 µM) | 64 µg/mL (≈ 160 µM) | 1.25 µg/mL (≈ 3.12 µM)
O=C(O)c1ccc2nc(NC(=O)c3cc(Cl)c(Cl)[nH]3)sc2c1 [Example 3, 2-(4,5-dichloro-1H-pyrrole-2-carboxamido)benzo[d]thiazole-6-carboxylic acid] | 19 ± 1 nM |  |  |  | > 64 µg/mL | 8.9 µg/mL (≈ 25 µM) | > 64 µg/mL | 17.8 µg/mL (≈ 50 µM)
Cc1[nH]c(C(=O)Nc2nc3ccc(C(=O)O)c(Cl)c3s2)c(Cl)c1Cl [Example 14, 7-chloro-2-(3,4-dichloro-5-methyl-1H-pyrrole-2-carboxamido)benzo[d]thiazole-6-carboxylic acid] | 310 ± 30 nM |  |  |  | > 64 µg/mL | > 64 µg/mL | > 64 µg/mL | > 64 µg/mL
Cc1[nH]c(C(=O)Nc2nc3c(OCc4ccsc4)cc(C(=O)O)cc3s2)c(Cl)c1Cl [Example 31, 2-(3,4-dichloro-5-methyl-1H-pyrrole-2-carboxamido)-4-(thiophen-3-ylmethoxy)benzo[d]thiazole-6-carboxylic acid] | < 5 nM | < 20 nM | < 400 nM | < 400 nM | 0.25 µg/mL (≈ 0.518 µM) | 0.0156 µg/mL (≈ 0.0323 µM) | 4 µg/mL (≈ 8.29 µM) | 
Cc1[nH]c(C(=O)Nc2nc3ccc(C(=O)NCCC(=O)O)cc3s2)c(Cl)c1Cl [Example 22, 3-(2-(3,4-dichloro-5-methyl-1H-pyrrole-2-carboxamido)benzo[d]thiazole-6-carboxamido)propanoic acid] | 7 ± 0.9 nM |  |  |  | 32 µg/mL (≈ 72.5 µM) | 2 µg/mL (≈ 4.53 µM) | > 64 µg/mL | 5.52 µg/mL (≈ 12.5 µM)
Cc1[nH]c(C(=O)Nc2nc3c(OCCN)cc(C(=O)O)cc3s2)c(Cl)c1Cl.Cl [Example 11, 2-((6-carboxy-2-(3,4-dichloro-5-methyl-1H-pyrrole-2-carboxamido)benzo[d]thiazol-4-yl)oxy)ethan-1-aminium chloride] | < 5 nM |  |  |  | > 64 µg/mL | > 64 µg/mL | > 64 µg/mL | > 64 µg/mL
Cc1[nH]c(C(=O)Nc2nc3c(F)cc(C(=O)O)cc3s2)c(Cl)c1Cl [Example 5, 2-(3,4-dichloro-5-methyl-1H-pyrrole-2-carboxamido)-4-fluorobenzo[d]thiazole-6-carboxylic acid] | < 5 nM |  |  |  | 1 µg/mL (≈ 2.58 µM) | 0.0625 µg/mL (≈ 0.161 µM) | 16 µg/mL (≈ 41.2 µM) | 0.61 µg/mL (≈ 1.57 µM)
Cc1[nH]c(C(=O)Nc2nc3c(-c4ccccc4)cc(C(=O)O)cc3s2)c(Cl)c1Cl [Example 44, 2-(3,4-dichloro-5-methyl-1H-pyrrole-2-carboxamido)-4-phenylbenzo[d]thiazole-6-carboxylic acid] | < 5 nM | < 20 nM | < 400 nM | < 400 nM | 0.0312 µg/mL (≈ 0.07 µM) | 0.023 µg/mL (≈ 0.0515 µM) | > 64 µg/mL | 
Cc1[nH]c(C(=O)Nc2nc3ccc(C(=O)NCC(=O)O)cc3s2)c(Cl)c1Cl [Example 23, (2-(3,4-dichloro-5-methyl-1H-pyrrole-2-carboxamido)benzo[d]thiazole-6-carbonyl)glycine] | 7.1 ± 3.2 nM | < 20 nM | < 400 nM | < 400 nM | 64 µg/mL (≈ 150 µM) | 16 µg/mL (≈ 37.4 µM) | > 64 µg/mL | 
Cc1[nH]c(C(=O)Nc2nc3c(OCc4cccc(F)c4)cc(C(=O)O)cc3s2)c(Cl)c1Cl [Example 30, 2-(3,4-dichloro-5-methyl-1H-pyrrole-2-carboxamido)-4-((3-fluorobenzyl)oxy)benzo[d]thiazole-6-carboxylic acid] |  | < 20 nM |  | < 400 nM | 0.0625 µg/mL (≈ 0.126 µM) | 0.001 µg/mL (≈ 0.00202 µM) | > 64 µg/mL | 
Cc1[nH]c(C(=O)Nc2nc3cc(C(=O)O)ccc3s2)c(Cl)c1Cl [Example 4, 2-(3,4-dichloro-5-methyl-1H-pyrrole-2-carboxamido)benzo[d]thiazole-5-carboxylic acid] | 830 ± 150 nM |  |  |  | > 64 µg/mL | > 64 µg/mL | > 64 µg/mL | > 64 µg/mL
